# According to PubChem BioAssay (NCI):
# “And” between values parts separate entries of the source, which are not always exact repeats. Equal values may be shown once.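 Assay format: 96-well plates, 48-hour exposure. Here, GI50 denotes the concentration required for 50% inhibition of growth. TGI: total growth inhibition.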
# Columns and labels:
# Assay in all cases: growth of human tumour cells (NCI), 48 h
# [1] = system: K-562 leukemia
# [2] = system: NCI-H522 lung
# [3] = system: MOLT-4 leukemia
# [4] = system: OVCAR-5 ovarian
# [5] = system: NCI-H226 lung
# [6] = system: HL-60(TB) leukemia
# [7] = system: OVCAR-4 ovarian
# [8] = system: SR leukemia
# [9] = system: MCF7 breast
# [10] = system: OVCAR-8 ovarian
Structure (SMILES),GI50 [1],TGI [1],GI50 [2],TGI [2],GI50 [3],TGI [3],GI50 [4],TGI [4],GI50 [5],TGI [5],GI50 [6],TGI [6],GI50 [7],TGI [7],GI50 [8],TGI [8],GI50 [9],TGI [9],GI50 [10],TGI [10]
Cn1cc(C2=C(c3ccc4ccccc4c3)C(=O)NC2=O)c2ccccc21,2.09 µM,> 25 µM,12.1 µM,> 25 µM,> 20.1 µM,> 25 µM,> 25 µM,> 25 µM,> 25 µM,> 25 µM,> 21.4 µM,> 25 µM,> 25 µM,> 25 µM,3.11 µM,> 25 µM,2.19 µM,> 25 µM,> 25 µM,> 25 µM
CNCCNc1c2c(c(NCCNC)c3c(CN(C)C)c[nH]c13)C(=O)c1ccccc1C2=O,1.81 µM,> 100 µM,0.514 µM,3.59 µM,0.434 µM,,2.95 µM,13.9 µM,6.69 µM,24.2 µM,4.14 µM,> 100 µM,4.79 µM,17.5 µM,,,0.922 µM,6.7 µM,3.28 µM,13.6 µM
O=Cc1cc2c(cc1-c1c(C=O)ccc3c1OCO3)OCO2,,> 10 µM,,,,> 10 µM,,,,,,> 10 µM,,> 10 µM,,> 10 µM,,> 10 µM,,> 10 µM
Cc1ccc(Cl)cc1Nc1nc(C(F)(F)F)ccc1C(=O)N1CCN(c2ccc(F)cc2)CC1,9.53 µM,30 µM,12.3 µM,30.2 µM,9.91 µM,46.6 µM,12.1 µM,30.1 µM,15.5 µM,31.3 µM,12.7 µM,37.8 µM,10.8 µM,27.9 µM,17.6 µM,80.6 µM,11.7 µM,38.7 µM,16.6 µM,50.2 µM
O=c1n(CC2CO2)c(=O)n(CC2CO2)c(=O)n1CC1CO1 (stereo unspecified),40.3 µM and 26.5 µM,308 µM and > 100 µM,11.2 µM and 3.9 µM,28 µM and 45.8 µM and 22.9 µM,5.09 µM and 2.95 µM,210 µM and > 100 µM,18.2 µM and 19.9 µM,56 µM and 118 µM and 40.1 µM,22.6 µM and 10.9 µM,78.3 µM and 103 µM and 45.9 µM,5.21 µM and 2.39 µM,28.1 µM and > 100 µM,25.9 µM and 23 µM,112 µM and > 100 µM,13.2 µM and 1.5 µM,877 µM and > 100 µM,3.9 µM and 1.89 µM,85.7 µM and > 100 µM,25.3 µM and 12.9 µM,148 µM and > 100 µM
CCN1CCN(c2ccc(Nc3cc(N(C)C(=O)Nc4c(Cl)c(OC)cc(OC)c4Cl)ncn3)cc2)CC1,2.09 µM,5.5 µM,5.21 µM,10.9 µM,1.87 µM,5.8 µM,3.7 µM,14.7 µM,,,2.14 µM,4.42 µM,0.851 µM,12.1 µM,2.02 µM,4.63 µM,2.41 µM,11.8 µM,3.07 µM,22.9 µM
C[C@H]1c2cccc(O)c2C(O)=C2C(=O)[C@]3(O)C(O)=C(C(N)=O)C(=O)[C@@H](N(C)C)[C@@H]3[C@@H](O)[C@@H]21,,,3.16 µM,12.4 µM,3.57 µM,15 µM,5.22 µM,95.4 µM,3.72 µM,25.7 µM,2.3 µM,6.56 µM,3.34 µM,42.1 µM,1.98 µM,4.67 µM,3.51 µM,28.2 µM,3.29 µM,14.7 µM
CC[C@]12C=CCN3CC[C@@]4(c5ccc(OC)cc5N(C)[C@H]4[C@@](O)(C(=O)OC)[C@@H]1OC(=O)CCC[P+](c1ccccc1)(c1ccccc1)c1ccccc1)[C@@H]32,0.561 µM and 0.421 µM,8.23 µM and 5.98 µM,0.247 µM and 0.342 µM,5.37 µM and 1.41 µM,1.04 µM and 1.1 µM,4.75 µM and 3.68 µM,1.19 µM and 1.38 µM,5.91 µM and 11 µM,1.91 µM and 1.93 µM,8.62 µM and 12.4 µM,0.203 µM and 0.195 µM,0.76 µM and 0.518 µM,0.317 µM and 0.322 µM,6.1 µM and 2.32 µM,0.379 µM and 0.438 µM,7.07 µM and 1.97 µM,0.254 µM and 0.354 µM,5.21 µM and 1.79 µM,1.45 µM and 1.59 µM,6.77 µM and 9.71 µM
COc1cc(Nc2cn[nH]c2-c2ccc(Cl)cc2)cc(OC)c1OC,2.49 µM,97.2 µM,6.81 µM,37.5 µM,3.65 µM,> 80.2 µM,15.9 µM,> 77.1 µM,11.7 µM,30.4 µM,2.6 µM,28.6 µM,7.93 µM,> 100 µM,2.23 µM,42.2 µM,3.3 µM,53.2 µM,14.3 µM,> 100 µM
COCCOc1cc(F)c2c(Nc3ccc(NC(=O)Cn4cc(C(C)C)nn4)cc3)ncnc2c1,10.2 µM,> 100 µM,35.5 µM,> 100 µM,> 100 µM,> 100 µM,> 100 µM,> 100 µM,60.8 µM,> 100 µM,> 100 µM,> 100 µM,19.2 µM,> 100 µM,,,> 100 µM,> 100 µM,37.4 µM,> 100 µM
O=S(=O)([O-])c1ccc2c(c1)-c1nc-2nc2[n-]c(nc3nc(nc4[n-]c(n1)c1ccc(S(=O)(=O)[O-])cc41)-c1cc(S(=O)(=O)[O-])ccc1-3)c1ccc(S(=O)(=O)[O-])cc21.[Cu+2].[Na+],0.749 µM,> 50.3 µM,44.8 µM,> 100 µM,2.19 µM,> 100 µM,> 100 µM,> 100 µM,> 100 µM,> 100 µM,0.174 µM,> 17.7 µM,5.31 µM,> 80.4 µM,11.2 µM,> 100 µM,> 100 µM,> 100 µM,> 100 µM,> 100 µM
C/C1=C\CC[C@@]2(C)O[C@@H]2[C@H]2OC(=O)[C@@H](CN(C)C)[C@@H]2CC1,2.54 µM,59.1 µM,2.65 µM,7.06 µM,2.89 µM,9.82 µM,18.6 µM,37.1 µM,20.4 µM,40.6 µM,1.46 µM,7.24 µM,16.6 µM,40 µM,,,4.96 µM,> 100 µM,23.2 µM,52.8 µM
OCCN1CN(CCO)CN(c2nc(N3CN(CCO)CN(CCO)C3)nc(N3CN(CCO)CN(CCO)C3)n2)C1,,,1.04 ng/mL,2.91 ng/mL,1.23 ng/mL,4.78 ng/mL,,,,0.63 ng/mL,,,1.69 ng/mL,4.06 ng/mL,,0.63 ng/mL,,0.69 ng/mL,,13.3 ng/mL
